Results published in patent US20080167268A1, “Particulate beta-glucan compositions for regulating dendritic cells” (priority 2006, published 2008).

System: Lewis Lung Carcinoma cells (LLC) transfected with OVA and MUC1
Assay: Staurosporine-induced apoptosis of transfected LLCs (PI / annexin V-FITC flow cytometry)
Assay type: cell-based
Settings: transfected LLCs treated with Staurosporine vs untreated; FIG. 2
Text: Transfected LLCs were either left untreated (plot 22) or treated (plot 24) with Staurosporine, which induces apoptosis. Cells from both groups were stained with propidium iodide (PI) and annexin V-FITC and analyzed by flow cytometry.

CN[C@@H]1C[C@H]2O[C@@](C)([C@@H]1OC)n1c3ccccc3c3c4c(c5c6ccccc6n2c5c31)C(=O)NC4 [Staurosporine]
induction of apoptosis (annexin V-FITC positive cells): able to induce apoptosis
